Values of other authors as cited in US7625920B2, “Fluorinated 4-azasteroid derivatives as androgen receptor modulators” (priority 2003, dated 2009).

Assays:
[1] = after 7 years of treatment
[2] = median of 22 months of treatment

| Molecule | increase in spinal BMD [1] [%] | reduction in nonvertebral fractures [2] [%] | reduction in spine fractures [2] [%] |
| --- | --- | --- | --- |
| NCCCC(O)(P(=O)([O-])O)P(=O)(O)O.O.O.O.[Na+] [alendronate, (4-amino-1-hydroxybutylidene)-bis-phosphonate monosodium trihydrate] | 11 | – | – |
| hPTH(1-34): human parathyroid hormone 1-34 fragment (SVSEIQLMHNLGKHLNSMERVEWLRKKLQDVHNF; Parathyroid hormone; UniProt P01270 32-65, looked up, fragment) | – | 54 | ≥ 65 |
